Test results from US12171821B2, “Toxoplasma gondii vaccine” (priority 2018, dated 2024).
Values joined by “and” are separate entries in the source; they are usually repeats but may differ in a detail not shown here. Equal values may be shown once.

What was measured:
[1] = tested on: T. gondii ME49 bradyzoites; assay: qPCR of SAG1, GRA11B, TUB1A on cDNA of infected cat intestinal monolayers; type: cell-based, Toxoplasma gondii
Protocol: FIGS. 6A-B. Quantification of merozoites in cat tissue culture. A) Cat intestinal organoids were disassociated by trypsin then grown as monolayers on glass slides. Slides were divided into three different groups: not supplemented with fatty acid, supplemented with 200 μM oleic acid or supplemented 200 μM linoleic acid. Monolayers were infected with T. gondii MEM bradyzoites purified from brains of chronic infected mice at a 1:10 MOI. Five days after infection, staining for GRA11B and BRP1 along with DAPI, allowed the percentage of vacuoles positive for GRA11B and BRP1out of the total vacuoles was determined. Total number of parasitophorous vacuoles were counted by positive DAPI staining and confirmed by morphology with DIC. At least 50 parasitophorous vacuoles were counted per replicate. Three biological replicates were counted and on average 35% of the total vacuoles were positive far both GRA11B and BRP1 in the linoleic acid supplemented monolayers. *p-value=0.0126 with N=3 by two-tailed unpaired t test. Straining for both BRP1 and GRA11B was used to ensure that merozoite stages were counted. […] BRP1 is a rhoptry protein that was initially found in bradyzoites; however, it is also expressed in merozoite. B) Cat intestinal monolayers were grown as described in panel A, except monolayers were quenched by TRIzol 5 days post-infection, RNA was extracted, and cDNA was synthesized using an oligo (dT) primer to amplify mRNA, Expression of SAG1 and GRA11B were quantified by qPCR and the fold change calculated in comparison with uninfected cells. TUB1A was used to normalize gene expression across samples.
Real-time PCR on ileum cDNA. Z-DNA binding protein deletion mice ice with and without delta-6-desaturase inhibitor treatment were euthanized 7 days post infection. The ileum of each mouse was removed and homogenized in 1 mL of TRIzol. Total RNA was isolated according to manufacturer's protocol (Invitrogen) and treated with amplification grade Dnase I. cDNA was generated using the Invitrogen SuperScript III First-Strand Synthesis kit with random hexamer primers. GRA11B and SAG1 were used as markers of sexual and asexual stages, respectively. The T. gondii housekeeping gene TUB1A was used to normalize target gene expression. Real-time quantitative PCR was performed using Bio-Rad iTaq Universal SYBR Green Supermix on 311 an Applied Biosystems StepOnePlus Real-Time PCR system. The efficiency of each primer set was calculated from the slope of a 1:10 dilution standard curve of tachyzoite gDNA, where E=10^(−1/slope). The Pfaffl method (Pfaffl, 2001), which accounts for differences in efficiencies, was then used to calculate the relative gene expression of GRA11B and SAG1 per sample, in triplicate. Only wells with one melt curve temperature were used, indicating a single product. Primer sequences were as follows: […]

[2] = tested on: T. gondii ME49 bradyzoites; assay: Real-time PCR on ileum cDNA of infected Z-DNA binding protein knock out mice; type: in vivo, Toxoplasma gondii; conditions: homogenized mouse ileum cDNA
Protocol: Delta-6-desaturase inhibition. SC 26196 (Cayman) was solubilized in DMSO and used at 20 μM in mouse organoid monolayers. For in vivo treatment, the inhibitor was solubilized in 0.5% m/v methylcellulose and the mice were given 50 mg/kg every 12 hours by oral gavage (He et al., 2012). 4-week old C57BL/6J female mice deleted in Z-DNA-binding protein (Pittman et al., 2016) were divided into four different groups: uninfected control, T. gondii-infected without fatty acid supplementation, T. gondii infected with linoleic acid supplementation, and T. gondii-infected with linoleic acid and SC 26196 inhibitor. Each mouse supplemented with linoleic acid received 10 μL of 99% linoleic acid oil (MilliporaSigma Cat #843483) suspended in 0.5% Methylcellulose per day by oral gavage. Mice were infected with 1000 brain cysts purified as described above by oral gavage and euthanized 7 days post infection. Sample size was at least 2 mice per group and the experiment was repeated 5 times. Alternatively, each mouse was infected with one mouse brain at least 2 months postinfection with at least 1000 cysts. Mice were treated with SC 26196 until day 5 postinfection. Feces were collected from days 5-14 and oocysts enumerated by microscopy.
Real-time PCR on ileum cDNA. Z-DNA binding protein deletion mice ice with and without delta-6-desaturase inhibitor treatment were euthanized 7 days post infection. The ileum of each mouse was removed and homogenized in 1 mL of TRIzol. Total RNA was isolated according to manufacturer's protocol (Invitrogen) and treated with amplification grade Dnase I. cDNA was generated using the Invitrogen SuperScript III First-Strand Synthesis kit with random hexamer primers. GRA11B and SAG1 were used as markers of sexual and asexual stages, respectively. The T. gondii housekeeping gene TUB1A was used to normalize target gene expression. Real-time quantitative PCR was performed using Bio-Rad iTaq Universal SYBR Green Supermix on 311 an Applied Biosystems StepOnePlus Real-Time PCR system. The efficiency of each primer set was calculated from the slope of a 1:10 dilution standard curve of tachyzoite gDNA, where E=10^(−1/slope). The Pfaffl method (Pfaffl, 2001), which accounts for differences in efficiencies, was then used to calculate the relative gene expression of GRA11B and SAG1 per sample, in triplicate. Only wells with one melt curve temperature were used, indicating a single product. Primer sequences were as follows:
Statistical methods. All real-time PCR fecal samples were run in triplicate technical replicates. The difference between the mean target gene copy numbers was analyzed by two-tailed unpaired t tests. The real-time PCR intestinal samples were run in triplicate from two biological replicates per group. The difference between the mean relative expression of each target gene was analyzed by two-tailed unpaired t tests.

[3] = cat intestinal monolayers cDNA, biological replicates 1 and 2
[4] = cat intestinal monolayers cDNA, biological replicates 1 and 2, wells 1-3
[5] = 7 days post infection, Mouse 1 and Mouse 2, wells 1-3

CCCCC/C=C\C/C=C\CCCCCCCC(=O)O [linoleic acid]
GRA11B Ct mean [1, 3]: 26.44 and 27.75
SAG1 Ct mean [1, 3]: 19.15 and 19.99
GRA11B raw Ct values [1, 4]: 26.53 and 27.67 and 26.34 and 27.82 and 26.44 and 27.77
SAG1 raw Ct values [1, 4]: 19.09 and 20.09 and 19.19 and 19.93 and 19.16 and 19.95
GRA11B expression by qPCR (fold change versus uninfected cells, normalized to TUB1A) ([1]; cat intestinal monolayers, 200 μM, 5 days post-infection): significantly more abundant
GRA11B raw Ct values [2, 5]: 33.43 and 36.02 and 35.59 and 38.24 and 39.05
SAG1 raw Ct values [2, 5]: 32.63 and 31.52 and 32.31 and 31.46 and 32.97 and 31.72
GRA11B Ct mean ([2]; Mouse 1 and Mouse 2): 37.13 and 36.02
SAG1 Ct mean ([2]; Mouse 1 and Mouse 2): 32.63 and 31.57
